From US9994862B2, “Rice resistant to HPPD and ACCase inhibiting herbicides” (priority 2011, dated 2018)

Key:
Assay type in all cases: in vivo, rice
[1] = tested on: unmutated line R0146; assay: Mesotrione tolerance trials / herbicide bioassay
Source text: (§1) Selection of material inheriting mesotrione tolerance is accomplished by a simple herbicide bioassay. A high rate of mesotrione (at least 420 gm ai/ha) is applied allowing differentiation of heterozygous individuals from homozygous individuals and the tolerance level of the […] line from the inherent tolerance level in the background of some types of rice. In one example a rate of 105 gm ai/ha is applied followed three weeks later by a second application of 630 gm ai/ha. In another example a rate of 420 gm ai/ha is applied in a single application. Yet another example entails applying the herbicide at a rate of 630 gm ai/ha. Herbicide applications are done at the three to four leaf stage of seedling growth. The ideal situation is to have also planted near or within the plants to be selected a set of plants from the original mutant mesotrione tolerant donor line ML0831266-03093, (FIG. 18A) a row of plants of the wild-type of the […] line, P1003 (FIG. 18B), and a row of the line involved as the other parent in the cross (FIG. 18C). These control lines allow easy differentiation for inheritance of the tolerance provided by the ML0831266-03093 mutant line through comparison of the response in the plants to be selected with the control lines. Only plants that live and are relatively healthy will have inherited and be homozygous for the tolerance level provided by the ML0831266-03093 mutant line (FIG. 18A).
(§2) The mutant line is planted in rows or alternatively whole plots are planted and rows of the unmutated line (P1003) and other types of rice or whole plots are planted. Mesotrione is applied pre-emergence or alternatively it is applied post-emergence at the three to four leaf stage of the rice plants. Various rates of mesotrione are applied pre-emergence, pre-emergence followed by post-emergent, or post-emergent with a single or sequential application. Post-emergent applications are applied at the 3-4 leaf stage of the rice.
(§3) Seedlings of size 3 to 4 leaves are sprayed with mesotrione herbicide. In one set of 89 plants mesotrione is first applied at 105 gm ai/ha killing 23 plants. Both the mutant line control ML0831266-03093 and the unmutated line P1003 survived the herbicide application while the unmutated line R0146 was killed. The surviving plants including some additional plants making a total of 95 are then sprayed with another treatment of mesotrione at a rate of 630 gm ai/ha killing or injuring 67 while 28 survived. (FIG. 23) The surviving ratio of plants to those killed or injured fits a one quarter ratio with a chi squared value of 1.03, well within the expected for a single recessive gene. Another set of F2 individuals of size 78 individuals are sprayed with a single application of mesotrione herbicide at a rate of 420 gm ai/ha resulting in 26 plants surviving also fitting in the expected one quarter ratio for a single recessive gene with a chi square value of 2.88 (Table 2).

[2] = tested on: unmutated line P1003; assay: Mesotrione tolerance trials / herbicide bioassay
Source text: as §1, §2, §3

[3] = tested on: F2 individuals derived from a cross of ML0831266-03093 and ML0831265-01493; assay: Mesotrione herbicide bioassays on segregating F2 population
Method: The mesotrione tolerant line ML0831266-03093 is tolerant to rates of 420 gm ai/ha and even a dual application of mesotrione first at a rate of 105 gm ai/ha followed three weeks later by an application of 630 gm ai/ha. […] The cross is made and the resulting F1 seeds are harvested, planted, and allowed to self to produce a F2 population. The F2 population is grown and tissue is collected from individual plants. Each F2 plant and parental lines are tested with a set of 192 SNP markers identified as being polymorphic between the two mutant lines ML0831266-03093 and ML0831265-01493. The set of polymorphic markers was identified as evenly spaced across the rice genome after testing both parental lines with a set of 796 SNP markers. All 192 markers including two found with linkage to target traits were selected from the 44 k SNP set described by Zhao et al. 2011.
as §3

[4] = one application at 105 gai/ha followed by a second application of 630 gai/ha
[5] = one application at 105 gai/ha followed by second application of 630 gai/ha
[6] = single application of mesotrione at 105 gai/ha
[7] = single application of mesotrione at 420 gai/ha

## CS(=O)(=O)c1ccc(C(=O)C2C(=O)CCCC2=O)c([N+](=O)[O-])c1 [mesotrione]
[1]; low rate 105 gm ai/ha
  survival after mesotrione: killed
[1]; [4]
  response of the rice to mesotrione: completely killed
[2]; higher rates
  survival after mesotrione: killed or severally injured
[2]; low rate 105 gm ai/ha
  survival after mesotrione: survived
[2]; [4]
  response of the rice to mesotrione: severely injured
[3]; [5]
  number of susceptible plants, observed: 67 plants
  number of tolerant plants, observed: 28 plants
[3]; [6]
  number of susceptible plants, observed: 23 plants
  number of tolerant plants, observed: 64 plants
[3]; [7]
  number of susceptible plants, observed: 52 plants
  number of tolerant plants, observed: 26 plants
